Our source for the IC50 values is US8859574B2 (IRM LLC, priority 2008, dated 2014).

The target of the experiment is T1, IGF-1R Ba/F3 (Homo sapiens, UniProt P08069).
T1 construct: fused on or other part: TEL- (or BCR-) IGF-1R in Ba/F3: the kinase part holds the site
Description: Ba/F3 Cell Viability Inhibition Assay (IGF-1R Ba/F3). The conditions noted are these: Tel-TK transformed Ba/F3 cells, 48 hours, Britelite luminescence. In kind it is cell-based, murine. A digest of the protocol: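 A 48 h compound treatment at 37 °C (3750 cells/well) was followed by Britelite luminescence to measure viability. Cells were Ba/F3 pro-B cells, IL-3-independent via TEL-fused IGF-1R kinase transduction. A logistic fit gave IC50 as 50% viability relative to DMSO control.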

T1 sequence (P08069 999-1274 limits assumed): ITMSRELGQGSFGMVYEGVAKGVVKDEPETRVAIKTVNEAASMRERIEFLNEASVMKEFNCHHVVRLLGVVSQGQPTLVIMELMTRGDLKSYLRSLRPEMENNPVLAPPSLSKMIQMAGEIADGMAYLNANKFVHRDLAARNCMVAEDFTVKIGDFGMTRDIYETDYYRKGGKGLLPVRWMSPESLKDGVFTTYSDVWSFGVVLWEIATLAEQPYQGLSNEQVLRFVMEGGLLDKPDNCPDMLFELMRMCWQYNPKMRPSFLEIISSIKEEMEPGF

The term IC50 denotes the point on the concentration scale where inhibition reaches its midpoint. Turning to `CCN1CCC(c2cc(C)c(Nc3ncc(C(F)(F)F)c(Nc4cc(C)[nH]n4)n3)cc2C)CC1` [Compound 221, N2-(4-(1-ethylpiperidin-4-yl)-2,5-dimethylphenyl)-N4-(5-methyl-1H-pyrazol-3-yl)-5-(trifluoromethyl)pyrimidine-2,4-diamine], the concentration for half-maximal inhibition (IC50) is 34 nM.
As for `Cc1cc(Nc2nc(Nc3cc(C)c(C4CCN(S(C)(=O)=O)CC4)cc3F)ncc2Cl)n[nH]1` [Compound 62, 5-Chloro-N2-(2-fluoro-5-methyl-4-(1-(methylsulfonyl)piperidin-4-yl)phenyl)-N4-(5-methyl-1H-pyrazol-3-yl)pyrimidine-2,4-diamine], the figure is 5 nM.
The value for `CC(=O)NCC(=O)N1CCC(c2cc(F)c(Nc3ncc(Cl)c(Nc4cc(C)[nH]n4)n3)cc2C)CC1` [Compound 107, N-(2-(4-(4-(5-chloro-4-(5-methyl-1H-pyrazol-3-ylamino)pyrimidin-2-ylamino)-5-fluoro-2-methylphenyl)piperidin-1-yl)-2-oxoethyl)acetamide] was 57 nM; that for `Cc1cc(C2CCN(CC(N)=O)CC2)c(C)cc1Nc1ncc(Cl)c(Nc2cc(C3CC3)[nH]n2)n1` [Compound 35, 2-(4-(4-(5-chloro-4-(5-cyclopropyl-1H-pyrazol-3-ylamino)pyrimidin-2-ylamino)-2,5-dimethylphenyl)piperidin-1-yl)acetamide] was 11 nM; that for `Cc1cc(Nc2nc(Nc3cc(C)c(C4CCN(C(=O)c5ccc[nH]5)CC4)cc3F)ncc2Cl)n[nH]1` [Compound 124, (4-(4-(5-chloro-4-(5-methyl-1H-pyrazol-3-ylamino)pyrimidin-2-ylamino)-5-fluoro-2-methylphenyl)piperidin-1-yl)(1H-pyrrol-2-yl)methanone] was 145 nM.
The value for `Cc1cc(Nc2nc(Nc3cc(C(F)(F)F)c(C4CCN(CC(N)=O)CC4)cc3C)ncc2Cl)n[nH]1` [Compound 47, 2-(4-(4-(5-chloro-4-(5-methyl-1H-pyrazol-3-ylamino)pyrimidin-2-ylamino)-5-methyl-2-(trifluoromethyl)phenyl)piperidin-1-yl)acetamide] was 22 nM.
Consider `Cc1cc(Nc2nc(Nc3cc(C)c(C4CCN(CC#N)CC4)cc3F)ncc2Cl)n[nH]1` [Compound 199, 2-(4-(4-(5-chloro-4-(5-methyl-1H-pyrazol-3-ylamino)pyrimidin-2-ylamino)-5-fluoro-2-methylphenyl)piperidin-1-yl)acetonitrile], for which inhibition was half-maximal at 77 nM (IC50).
`Cc1cc(Nc2nc(Nc3cc(C)c(C4CCN(S(=O)(=O)CCCN5CCCC5)CC4)cc3C)ncc2Cl)n[nH]1` [Compound 233, 5-chloro-N2-(2,5-dimethyl-4-(1-(3-(pyrrolidin-l-yl)propylsulfonyl)piperidin-4-yl)phenyl)-N4-(5-methyl-1H-pyrazol-3-yl)pyrimidine-2,4-diamine] returned an IC50 of 54 nM.
The value for `Cc1cc(Nc2ncc(Cl)c(Nc3cc(C(F)(F)F)[nH]n3)n2)c(F)cc1C1CCN(CC(N)=O)CC1` [Compound 173, 2-(4-(4-(5-chloro-4-(5-(trifluoromethyl)-1H-pyrazol-3-ylamino)pyrimidin-2-ylamino)-5-fluoro-2-methylphenyl)piperidin-1-yl)acetamide] was 49 nM; that for `Cc1noc(CN2CCC(c3cc(F)c(Nc4ncc(Cl)c(Nc5cc(C)[nH]n5)n4)cc3C)CC2)n1` [Compound 293, 5-chloro-N2-(2-fluoro-5-methyl-4-(1-((3-methyl-1,2,4-oxadiazol-5-yl)methyl)piperidin-4-yl)phenyl)-N4-(5-methyl-1H-pyrazol-3-yl)pyrimidine-2,4-diamine] was 26 nM; that for `CCc1cc(Nc2nc(Nc3cc(C)c(C4CCN(CC)CC4)cc3F)ncc2Cl)n[nH]1` [Compound 268, 5-chloro-N4-(5-ethyl-1H-pyrazol-3-yl)-N2-(4-(1-ethylpiperidin-4-yl)-2-fluoro-5-methylphenyl)pyrimidine-2,4-diamine] was 22 nM.
Consider `CNC(C)(C)C(=O)N1CCC(c2cc(F)c(Nc3ncc(Cl)c(Nc4cc(C)[nH]n4)n3)cc2C)CC1` [Compound 87, 1-(4-(4-(5-chloro-4-(5-methyl-1H-pyrazol-3-ylamino)pyrimidin-2-ylamino)-5-fluoro-2-methylphenyl)piperidin-1-yl)-2-methyl-2-(methylamino)propan-1-one], for which 17 nM corresponded to half-maximal inhibition (IC50).
As for `CC[N+]1([O-])CCC(c2cc(F)c(Nc3ncc(Cl)c(Nc4cc(C)[nH]n4)n3)cc2C)CC1` (stereo not shown) [Compound 289, 4-(4-(5-chloro-4-(5-methyl-1H-pyrazol-3-ylamino)pyrimidin-2-ylamino)-5-fluoro-2-methylphenyl)-1-ethylpiperidine-1-oxide], the figure is 370 nM; as for `Cc1cc(C2CCN(CCO)CC2)c(C)cc1Nc1ncc(Cl)c(Nc2cc(C3CC3)[nH]n2)n1` [Compound 204, 2-(4-(4-(5-chloro-4-(5-cyclopropyl-1H-pyrazol-3-ylamino)pyrimidin-2-ylamino)-2,5-dimethylphenyl)piperidin-1-yl)ethanol], 16 nM; as for `Cc1cc(Nc2nc(Nc3cc(C)c(C4CCCN(CC(N)=O)C4)cc3C)ncc2Cl)n[nH]1` (stereo not shown) [Compound 41, 2-(3-(4-(5-chloro-4-(5-methyl-1H-pyrazol-3-ylamino)pyrimidin-2-ylamino)-2,5-dimethylphenyl)piperidin-1-yl)acetamide], 26 nM.
In the case of `Cc1cc(Nc2nc(Nc3cc(C)c(C4CCN(C(=O)C5(N)CCC5)CC4)cc3C)ncc2Cl)n[nH]1` [Compound 91, (1-aminocyclobutyl)(4-(4-(5-chloro-4-(5-methyl-1H-pyrazol-3-ylamino)pyrimidin-2-ylamino)-2,5-dimethylphenyl)piperidin-1-yl)methanone], the IC50 stood at 52 nM.
The value for `Cc1cc(Nc2nc(Nc3cc(C)c(C4CCN(C(=O)n5cnnn5)CC4)cc3F)ncc2Cl)n[nH]1` [Compound 140, (4-(4-(5-chloro-4-(5-methyl-1H-pyrazol-3-ylamino)pyrimidin-2-ylamino)-5-fluoro-2-methylphenyl)piperidin-1-yl)(1H-tetrazol-1-yl)methanone] was 139 nM.
As to `Cc1cc(Nc2nc(Nc3cc(C)c(C4CCN(CCCC(=O)N5CCOCC5)CC4)cc3F)ncc2Cl)n[nH]1` [Compound 246, 4-(4-(4-(5-Chloro-4-(5-methyl-1H-pyrazol-3-ylamino)pyrimidin-2-ylamino)-5-fluoro-2-methylphenyl)piperidin-1-yl)-1-morpholinobutan-1-one], the IC50 was determined as 58 nM.
The value for `CNC(=O)C(C)N1CCC(c2cc(C)c(Nc3ncc(Cl)c(Nc4cc(C)[nH]n4)n3)cc2C)CC1` (stereo not shown) [Compound 52, 2-(4-(4-(5-chloro-4-(5-methyl-1H-pyrazol-3-ylamino)pyrimidin-2-ylamino)-2,5-dimethylphenyl)piperidin-1-yl)-N-methylpropanamide] was 6 nM; that for `Cc1cc(Nc2nc(Nc3cc(C)c(C4CCN(C(=O)C(C)(C)N)CC4)cc3C)ncc2Cl)n[nH]1` [Compound 89, 2-amino-1-(4-(4-(5-chloro-4-(5-methyl-1H-pyrazol-3-ylamino)pyrimidin-2-ylamino)-2,5-dimethylphenyl)piperidin-1-yl)-2-methylpropan-1-one] was 23 nM.
Molecule `CNC(=O)[C@H](C)N1CCC(c2cc(C)c(Nc3ncc(Cl)c(Nc4cc(C)[nH]n4)n3)cc2C)CC1` [Compound 168, (S)-2-(4-(4-(5-chloro-4-(5-methyl-1H-pyrazol-3-ylamino)pyrimidin-2-ylamino)-2,5-dimethylphenyl)piperidin-1-yl)-N-methylpropanamide] showed an IC50 of 10 nM.
As for `Cc1cc(Nc2nc(Nc3cc(C)c(C4CCN(C(=O)C5CNC5)CC4)cc3F)ncc2Cl)n[nH]1` [Compound 131, Azetidin-3-yl(4-(4-(5-chloro-4-(5-methyl-1H-pyrazol-3-ylamino)pyrimidin-2-ylamino)-5-fluoro-2-methylphenyl)piperidin-1-yl)methanone], the figure is 1250 nM.
As for `Cc1cc(Nc2nc(Nc3cc(C)c(C4CCN(CC(N)=O)CC4)cc3C)ncc2C(F)(F)F)n[nH]1` [Compound 202, 2-(4-(2,5-dimethyl-4-(4-(5-methyl-1H-pyrazol-3-ylamino)-5-(trifluoromethyl)pyrimidin-2-ylamino)phenyl)piperidin-1-yl)acetamide], the figure is 20 nM.
As for `Cc1cc(Nc2nc(Nc3cc(C)c(C4CCN([C@@H](C)C(N)=O)CC4)cc3C)ncc2Cl)n[nH]1` [Compound 166, (S)-2-(4-(4-(5-chloro-4-(5-methyl-1H-pyrazol-3-ylamino)pyrimidin-2-ylamino)-2,5-dimethylphenyl)piperidin-1-yl)propanamide], the figure is 7 nM.
Consider `Cc1cc(Nc2nc(Nc3cc(C)c(C4CCN(C5CCNC5)CC4)cc3F)ncc2Cl)n[nH]1` (stereo not shown) [Compound 299, 5-chloro-N2-(2-fluoro-5-methyl-4-(1-(pyrrolidin-3-yl)piperidin-4-yl)phenyl)-N4-(5-methyl-1H-pyrazol-3-yl)pyrimidine-2,4-diamine], for which the IC50 worked out at 101 nM.
`CCNC(C)(C)C(=O)N1CCC(c2cc(C)c(Nc3ncc(Cl)c(Nc4cc(C)[nH]n4)n3)cc2C)CC1` [Compound 175, 1-(4-(4-(5-chloro-4-(5-methyl-1H-pyrazol-3-ylamino)pyrimidin-2-ylamino)-2,5-dimethylphenyl)piperidin-1-yl)-2-(ethylamino)-2-methylpropan-1-one]: the half-inhibitory concentration (IC50) was determined as 5 nM. This IC50 lies about 20-fold lower than the previous one.
As for `Cc1cc(Nc2nc(Nc3cc(C)c(C4CCN(Cc5noc(C(C)C)n5)CC4)cc3C)ncc2Cl)n[nH]1` [Compound 305, 5-chloro-N2-(4-(1-((5-isopropyl-1,2,4-oxadiazol-3-yl)methyl)piperidin-4-yl)-2,5-dimethylphenyl)-N4-(5-methyl-1H-pyrazol-3-yl)pyrimidine-2,4-diamine], the figure is 25 nM; as for `Cc1cc(Nc2nc(Nc3cc(C)c(C4CCN(CCS(=O)(=O)N5CCC5)CC4)cc3F)ncc2Cl)n[nH]1` [Compound 61, N2-(4-(1-(2-(azetidin-1-ylsulfonyl)ethyl)piperidin-4-yl)-2-fluoro-5-methylphenyl)-5-chloro-N4-(5-methyl-1H-pyrazol-3-yl)pyrimidine-2,4-diamine], 56 nM.
